Reference: PubChem BioAssay (NCI)
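GI50 is the concentration that inhibits growth by half. TGI marks complete inhibition of growth.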

Assays:
Assay in all cases: NCI anticancer screen, dose series, 384-well format
HCC-2998 colon = tested on: HCC-2998 colon
HCT-116 colon = tested on: HCT-116 colon
UACC-257 melanoma = tested on: UACC-257 melanoma
CCRF-CEM leukemia = tested on: CCRF-CEM leukemia
A498 renal = tested on: A498 renal
IGROV1 ovarian = tested on: IGROV1 ovarian
MDA-MB-435 melanoma = tested on: MDA-MB-435 melanoma
SNB-19 CNS = tested on: SNB-19 CNS
MALME-3M melanoma = tested on: MALME-3M melanoma
SW-620 colon = tested on: SW-620 colon
MDA-MB-468 breast = tested on: MDA-MB-468 breast
CAKI-1 renal = tested on: CAKI-1 renal
A549 NSCLC = tested on: A549 NSCLC
MDA-MB-231 breast = tested on: MDA-MB-231 breast
MCF7 breast = tested on: MCF7 breast
K-562 leukemia = tested on: K-562 leukemia
NCI/ADR-RES ovarian = tested on: NCI/ADR-RES ovarian
SK-MEL-5 melanoma = tested on: SK-MEL-5 melanoma
SNB-75 CNS = tested on: SNB-75 CNS
M14 melanoma = tested on: M14 melanoma
OVCAR-8 ovarian = tested on: OVCAR-8 ovarian
NCI-H23 lung = tested on: NCI-H23 lung
NCI-H522 lung = tested on: NCI-H522 lung
NCI-H322M lung = tested on: NCI-H322M lung
HOP-62 NSCLC = tested on: HOP-62 NSCLC
ACHN renal = tested on: ACHN renal
DU-145 prostate = tested on: DU-145 prostate
SF-295 CNS = tested on: SF-295 CNS
TK-10 renal = tested on: TK-10 renal
HT29 colon = tested on: HT29 colon
EKVX NSCLC = tested on: EKVX NSCLC
LOX IMVI melanoma = tested on: LOX IMVI melanoma
NCI-H460 NSCLC = tested on: NCI-H460 NSCLC
OVCAR-5 ovarian = tested on: OVCAR-5 ovarian
HL-60(TB) leukemia = tested on: HL-60(TB) leukemia
SK-OV-3 ovarian = tested on: SK-OV-3 ovarian
RPMI-8226 leukemia = tested on: RPMI-8226 leukemia
UO-31 renal = tested on: UO-31 renal
UACC-62 melanoma = tested on: UACC-62 melanoma
BT-549 breast = tested on: BT-549 breast
MOLT-4 leukemia = tested on: MOLT-4 leukemia
COLO 205 colon = tested on: COLO 205 colon
RXF 393 renal = tested on: RXF 393 renal
NCI-H226 lung = tested on: NCI-H226 lung
SF-539 CNS = tested on: SF-539 CNS
SK-MEL-28 melanoma = tested on: SK-MEL-28 melanoma
T-47D breast = tested on: T-47D breast
KM12 colon = tested on: KM12 colon
786-0 renal = tested on: 786-0 renal
OVCAR-4 ovarian = tested on: OVCAR-4 ovarian
PC-3 prostate = tested on: PC-3 prostate
HCT-15 colon = tested on: HCT-15 colon
SF-268 CNS = tested on: SF-268 CNS
HOP-92 NSCLC = tested on: HOP-92 NSCLC
SN12C renal = tested on: SN12C renal
U251 glioblastoma = tested on: U251 glioblastoma
HS 578T breast = tested on: HS 578T breast
OVCAR-3 ovarian = tested on: OVCAR-3 ovarian

Molecule `CC1=C2C[C@H]3[C@@H](CC[C@@H]4CC(NS(C)(=O)=O)CC[C@@]43C)[C@@H]2CC[C@@]2(C1)O[C@@H]1C[C@H](C)CN[C@H]1[C@H]2C` (stereo partly specified) has a GI50 (HCC-2998 colon) of 3.47 µM, a TGI (HCC-2998 colon) of 9.91 µM and a GI50 (HCT-116 colon) of 3.83 µM. For the same molecule, the TGI (HCT-116 colon) was 12.7 µM, the GI50 (UACC-257 melanoma) was 2.19 µM and the TGI (UACC-257 melanoma) was 3.64 µM. It also gave a GI50 (CCRF-CEM leukemia) of 1.95 µM, a TGI (CCRF-CEM leukemia) of 3.74 µM and a GI50 (A498 renal) of 2.99 µM. It also gave a TGI (A498 renal) of 7.76 µM, a GI50 (IGROV1 ovarian) of 1.88 µM and a TGI (IGROV1 ovarian) of 3.47 µM. It also gave a GI50 (MDA-MB-435 melanoma) of 12.4 µM, a TGI (MDA-MB-435 melanoma) of 25 µM and a GI50 (SNB-19 CNS) of 5.22 µM. The TGI (SNB-19 CNS) was 16.4 µM, the GI50 (MALME-3M melanoma) was 1.88 µM and the TGI (MALME-3M melanoma) was 3.32 µM. For the same molecule, the GI50 (SW-620 colon) was 13.8 µM, the TGI (SW-620 colon) was 26.8 µM and the GI50 (MDA-MB-468 breast) was 2.08 µM. The TGI (MDA-MB-468 breast) was 3.96 µM, the GI50 (CAKI-1 renal) was 4.29 µM and the TGI (CAKI-1 renal) was 15.8 µM. It also gave a GI50 (A549 NSCLC) of 4 µM, a TGI (A549 NSCLC) of 14.2 µM and a GI50 (MDA-MB-231 breast) of 11.6 µM. The TGI (MDA-MB-231 breast) was 23.8 µM, the GI50 (MCF7 breast) was 3.24 µM and the TGI (MCF7 breast) was 11.9 µM. The GI50 (K-562 leukemia) was 1.83 µM, the TGI (K-562 leukemia) was 3.23 µM and the GI50 (NCI/ADR-RES ovarian) was 13.7 µM. For the same molecule, the TGI (NCI/ADR-RES ovarian) was 26.7 µM, the GI50 (SK-MEL-5 melanoma) was 1.72 µM and the TGI (SK-MEL-5 melanoma) was 3.12 µM. For the same molecule, the GI50 (SNB-75 CNS) was 3.82 µM, the TGI (SNB-75 CNS) was 15 µM and the GI50 (M14 melanoma) was 2.49 µM. The TGI (M14 melanoma) was 5.93 µM, the GI50 (OVCAR-8 ovarian) was 13.4 µM and the TGI (OVCAR-8 ovarian) was 26.3 µM. It also gave a GI50 (NCI-H23 lung) of 14.9 µM, a TGI (NCI-H23 lung) of 28.2 µM and a GI50 (NCI-H522 lung) of 3.46 µM. It also gave a TGI (NCI-H522 lung) of 8.3 µM, a GI50 (NCI-H322M lung) of 10.9 µM and a TGI (NCI-H322M lung) of 22.9 µM. For the same molecule, the GI50 (HOP-62 NSCLC) was 4.47 µM, the TGI (HOP-62 NSCLC) was 15.1 µM and the GI50 (ACHN renal) was 2.62 µM. The TGI (ACHN renal) was 6.64 µM, the GI50 (DU-145 prostate) was 5.47 µM and the TGI (DU-145 prostate) was 16.6 µM. The GI50 (SF-295 CNS) was 13.3 µM, the TGI (SF-295 CNS) was 26.1 µM and the GI50 (TK-10 renal) was 2.75 µM. For the same molecule, the TGI (TK-10 renal) was 7.38 µM, the GI50 (HT29 colon) was 1.9 µM and the TGI (HT29 colon) was 3.55 µM. It also gave a GI50 (EKVX NSCLC) of 3.44 µM, a TGI (EKVX NSCLC) of 8.77 µM and a GI50 (LOX IMVI melanoma) of 1.88 µM. It also gave a TGI (LOX IMVI melanoma) of 3.6 µM, a GI50 (NCI-H460 NSCLC) of 1.94 µM and a TGI (NCI-H460 NSCLC) of 3.61 µM. For the same molecule, the GI50 (OVCAR-5 ovarian) was 13.8 µM, the TGI (OVCAR-5 ovarian) was 26.8 µM and the GI50 (HL-60(TB) leukemia) was 3.3 µM. It also gave a TGI (HL-60(TB) leukemia) of 12.2 µM, a GI50 (SK-OV-3 ovarian) of 3.8 µM and a TGI (SK-OV-3 ovarian) of 10.2 µM. It also gave a GI50 (RPMI-8226 leukemia) of 3.72 µM, a TGI (RPMI-8226 leukemia) of 11.2 µM and a GI50 (UO-31 renal) of 3.9 µM. It also gave a TGI (UO-31 renal) of 13.7 µM, a GI50 (UACC-62 melanoma) of 10.7 µM and a TGI (UACC-62 melanoma) of 22.6 µM. For the same molecule, the GI50 (BT-549 breast) was 4.17 µM, the TGI (BT-549 breast) was 12.8 µM and the GI50 (MOLT-4 leukemia) was 1.83 µM. For the same molecule, the TGI (MOLT-4 leukemia) was 3.55 µM, the GI50 (COLO 205 colon) was 2.46 µM and the TGI (COLO 205 colon) was 5.34 µM. The GI50 (RXF 393 renal) was 2.98 µM, the TGI (RXF 393 renal) was 9.2 µM and the GI50 (NCI-H226 lung) was 5.5 µM. It also gave a TGI (NCI-H226 lung) of 17.6 µM, a GI50 (SF-539 CNS) of 5.02 µM and a TGI (SF-539 CNS) of 15.9 µM. For the same molecule, the GI50 (SK-MEL-28 melanoma) was 3.01 µM, the TGI (SK-MEL-28 melanoma) was 6.71 µM and the GI50 (T-47D breast) was 2.12 µM. For the same molecule, the TGI (T-47D breast) was 4.28 µM, the GI50 (KM12 colon) was 8.44 µM and the TGI (KM12 colon) was 20.6 µM. The GI50 ([…]-0 renal) was 2.21 µM, the TGI (786-0 renal) was 5.06 µM and the GI50 (OVCAR-4 ovarian) was 5.29 µM. For the same molecule, the TGI (OVCAR-4 ovarian) was 14.8 µM, the GI50 (PC-3 prostate) was 3.6 µM and the TGI (PC-3 prostate) was 11.5 µM. For the same molecule, the GI50 (HCT-15 colon) was 3.89 µM, the TGI (HCT-15 colon) was 13.6 µM and the GI50 (SF-268 CNS) was 3.22 µM. It also gave a TGI (SF-268 CNS) of 9.73 µM, a GI50 (HOP-92 NSCLC) of 3.4 µM and a TGI (HOP-92 NSCLC) of 12.7 µM. It also gave a GI50 (SN12C renal) of 3.89 µM, a TGI (SN12C renal) of 13 µM and a GI50 (U251 glioblastoma) of 4.31 µM. For the same molecule, the TGI (U251 glioblastoma) was 14.2 µM, the GI50 (HS 578T breast) was 10.8 µM and the TGI (HS 578T breast) was 22.7 µM. For the same molecule, the GI50 (OVCAR-3 ovarian) was 3.97 µM and the TGI (OVCAR-3 ovarian) was 11.5 µM.
